Literature values as cited in patent publication US20120116113A1, “PROCESS FOR MAKING NEO-ENRICHED p-MENTHANE COMPOUNDS” (priority 2010, published 2012).

Settings: for initial cooling rating: table below paragraph [0137] of U.S. Pat. Appl. 2010/0076080

Compound: CC(C)[C@@H]1CC[C@@H](C)C[C@@H]1C(=O)Nc1ccc(CC#N)cc1 (single isomer, unassigned) [neo isomer [of G-180]]
- cooling effect (according to Yelm et al., U.S. Pat. Appl. 2010/0076080): potent and long-lasting cooling effect

Compound: CCOC(=O)CNC(=O)C1CC(C)CCC1C(C)C (stereo not drawn) [neo-WS-5]
- initial cooling rating: 61.9

Compound: CCOC(=O)CNC(=O)[C@@H]1C[C@H](C)CC[C@H]1C(C)C [normal WS-5]
- initial cooling rating: 53.9
